*1 amine or outer side, *2 acyl side, *3 side chain or, on linkers, in order; H or OH if unused. Where a SMILES comes first, the peptide text is derived from it. Bridges are numbered along the chain shown (N, C = ends). X1 = O=C(C[*:2])[*:1]
Columns and labels:
carboxy peptidase = experiment: Resistance to peptidase: decomposition by carboxy peptidase (HPLC); type: in vitro ADME; settings: isolated carboxy peptidase (SIGMA); 1 U/ml enzyme in PBS, 37° C., peptide 0.2 mg/ml; time at which half of the peptide was decomposed; read-out: half period by carboxy peptidase (t1/2)
Protocol: (§1) Resistance to a peptidase of a peptide of the present invention was investigated using a carboxy peptidase and chymotrypsin. Resistance to a peptidase was measured as described below.
A carboxy peptidase purchased from SIGMA was treated with PBS to prepare an enzyme solution of 1 U/ml, which was then kept warm at 37° C. in a water bath. Then, a peptide solution having a concentration adjusted to 5 mg/ml with DMSO: pure water=1:1 mixed solvent was treated with PBS(−) to obtain a concentration of 1 mg/ml, and the enzyme solution and the peptide solution were mixed at 4:1 so as to give a peptide final concentration of 0.2 mg/ml. Thereafter, these were reacted quickly at 37° C. With time, the reaction solution was sampled each in an amount of 0.1 ml, and a reaction stopping solution (25% TFA in acetonitrile, 20 μL) was added to stop the reaction. Samples were analyzed by HPLC, and decomposition of a peptide by the peptidase was measured. Sampling was conducted at 0, 0.5 minutes, 1 minute and 2 minutes, and when decomposition of […] or more was not obtained at 2 minutes, sampling was conducted further at 0.5 hours, 1 hour, 3 hours, additionally, sometimes at 6 hours, and for peptides stable for a long period, sampling was conducted in a range of 24 hours to 168 hours according to demands. Time at which half of the peptide added was decomposed was measured.

chymotrypsin = target: T1, chymotrypsin (Bos taurus, UniProt P00766); experiment: Resistance to peptidase: decomposition by chymotrypsin (HPLC); type: in vitro ADME; settings: isolated chymotrypsin (SIGMA), pH 8; 4 U/ml enzyme in 0.1M Tris-HCl (pH8.0), 37° C., peptide 0.2 mg/ml; time at which half of the peptide was decomposed; read-out: half period by chymotrypsin (t1/2)
T1 construct: purchased SIGMA
Protocol: as §1
Chymotrypsin purchased from SIGMA was treated with 0.1M Tris-HCl (pH8.0) to prepare an enzyme solution of 4 U/ml, which was then kept warm at 37° C. in a water bath. Then, a peptide solution treated with DMSO: pure water=1:1 to obtain a concentration of 5 mg/ml was treated with 0.1M Tris-HCl (pH8.0) to give a concentration of 1 mg/ml, and the enzyme solution and the peptide solution were mixed at 4:1 so as to give a peptide final concentration of 0.2 mg/ml. Thereafter, these were reacted quickly at 37° C. With time, the reaction solution was sampled each in an amount of 0.1 ml, and a reaction stopping solution (25% TFA in acetonitrile, 20 μL) was added to stop the reaction. Samples were analyzed by HPLC, and decomposition of a peptide by chymotrypsin was measured. Sampling was conducted at 0, 0.5 minutes, 1 minute and 2 minutes, and when decomposition of 50% or more was not obtained at 2 minutes, sampling was conducted further at 0.5 hours, 1 hour, 3 hours, and time at which half of the peptide added was decomposed was measured.

CC(=O)N[C@@H](Cc1ccc(O)cc1)C(=O)N[C@H]1CCCCN(C(C)=O)CCCCN(CC(=O)N[C@@H](Cc2ccc(O)cc2)C(=O)O)C(=O)[C@H](CC(C)C)NC(=O)[C@H](Cc2ccc(O)cc2)NC(=O)[C@H](CCC(N)=O)NC(=O)[C@H](CO)NC(=O)[C@H](Cc2c[nH]c3ccccc23)NC1=O [Bdev5]
half-life at 0.2 mg/ml (carboxy peptidase): 3.34 min
half-life at 0.2 mg/ml (chymotrypsin): 0.39 min

CC(=O)N1CCCC[C@H](NC(=O)[C@@H](N)Cc2ccc(O)cc2)C(=O)N[C@@H](Cc2c[nH]c3ccccc23)C(=O)N[C@@H](CO)C(=O)N[C@@H](CCC(N)=O)C(=O)N[C@@H](Cc2ccc(O)cc2)C(=O)N[C@@H](CC(C)C)C(=O)N(CC(=O)N[C@@H](Cc2ccc(O)cc2)C(=O)O)CCCC1 [Bdev2]
half-life at 0.2 mg/ml (carboxy peptidase): 18.7 min
half-life at 0.2 mg/ml (chymotrypsin): 1.4 min

CC(=O)N[C@@H](Cc1ccc(O)cc1)C(=O)N[C@H]1CCCCNCCCCN(CC(=O)N[C@@H](Cc2ccc(O)cc2)C(=O)O)C(=O)[C@H](CC(C)C)NC(=O)[C@H](Cc2ccc(O)cc2)NC(=O)[C@H](CCC(N)=O)NC(=O)[C@H](CO)NC(=O)[C@H](Cc2c[nH]c3ccccc23)NC1=O [Bdev6]
half-life at 0.2 mg/ml (carboxy peptidase): 2.47 min
half-life at 0.2 mg/ml (chymotrypsin): 2.09 min

CC(=O)N1CCCCN(CC(=O)N[C@@H](Cc2ccc(O)cc2)C(=O)O)C(=O)[C@H](CC(C)C)NC(=O)[C@H](Cc2ccc(O)cc2)NC(=O)[C@H](CCC(N)=O)NC(=O)[C@H](CO)NC(=O)[C@H](Cc2c[nH]c3ccccc23)NC(=O)CN(C(=O)[C@@H](N)Cc2ccc(O)cc2)CCCC1 [Bdev-21]
half-life at 0.2 mg/ml (carboxy peptidase): 14.6 min
half-life at 0.2 mg/ml (chymotrypsin): 0.95 min

CC(C)C[C@@H]1NC(=O)[C@H](Cc2ccc(O)cc2)NC(=O)[C@H](CCC(N)=O)NC(=O)[C@H](CO)NC(=O)[C@H](Cc2c[nH]c3ccccc23)NC(=O)[C@@H](NC(=O)[C@@H](N)Cc2ccc(O)cc2)CCCCNC(=O)CSC[C@@H](C(=O)N[C@@H](Cc2ccc(O)cc2)C(=O)O)NC1=O [Comp. 1, reference compound] (H-YKWSQYLCY-OH; linker 2-8 via X1)
half-life at 0.2 mg/ml (carboxy peptidase): 0.72 min
half-life at 0.2 mg/ml (chymotrypsin): 0.45 min

CC(=O)N1CCCC[C@@H](C(=O)N[C@@H](Cc2ccc(O)cc2)C(=O)O)NC(=O)[C@H](CC(C)C)NC(=O)[C@H](Cc2ccc(O)cc2)NC(=O)[C@H](CCC(N)=O)NC(=O)[C@H](CO)NC(=O)[C@H](Cc2c[nH]c3ccccc23)NC(=O)[C@@H](NC(=O)[C@@H](N)Cc2ccc(O)cc2)CCCC1 [Bdev-25]
half-life at 0.2 mg/ml (carboxy peptidase): 2.63 min
half-life at 0.2 mg/ml (chymotrypsin): 1.85 min

CCCCC(=O)N1CCCC[C@H](NC(=O)[C@@H](N)Cc2ccc(O)cc2)C(=O)N[C@@H](Cc2c[nH]c3ccccc23)C(=O)N[C@@H](CO)C(=O)N[C@@H](CCC(N)=O)C(=O)N[C@@H](Cc2ccc(O)cc2)C(=O)N[C@@H](CC(C)C)C(=O)N(CC(=O)N[C@@H](Cc2ccc(O)cc2)C(=O)O)CCCC1 [Bdev-28]
half-life at 0.2 mg/ml (carboxy peptidase): 21.7 min
half-life at 0.2 mg/ml (chymotrypsin): 2.9 min

COCCOCCOCCOCCC(=O)N1CCCC[C@H](NC(=O)[C@@H](N)Cc2ccc(O)cc2)C(=O)N[C@@H](Cc2c[nH]c3ccccc23)C(=O)N[C@@H](CO)C(=O)N[C@@H](CCC(N)=O)C(=O)N[C@@H](Cc2ccc(O)cc2)C(=O)N[C@@H](CC(C)C)C(=O)N(CC(=O)N[C@@H](Cc2ccc(O)cc2)C(=O)O)CCCC1 [Bdev-29]
half-life at 0.2 mg/ml (carboxy peptidase): 15.7 min
half-life at 0.2 mg/ml (chymotrypsin): 3.73 min

COCCOCCOCCOCCOCCOCCOCCOCCC(=O)N1CCCC[C@H](NC(=O)[C@@H](N)Cc2ccc(O)cc2)C(=O)N[C@@H](Cc2c[nH]c3ccccc23)C(=O)N[C@@H](CO)C(=O)N[C@@H](CCC(N)=O)C(=O)N[C@@H](Cc2ccc(O)cc2)C(=O)N[C@@H](CC(C)C)C(=O)N(CC(=O)N[C@@H](Cc2ccc(O)cc2)C(=O)O)CCCC1 [Bdev-30]
half-life at 0.2 mg/ml (carboxy peptidase): 19.2 min
half-life at 0.2 mg/ml (chymotrypsin): 3.66 min

CCC(=O)N1CCCC[C@H](NC(=O)[C@@H](N)Cc2ccc(O)cc2)C(=O)N[C@@H](Cc2c[nH]c3ccccc23)C(=O)N[C@@H](CO)C(=O)N[C@@H](CCC(N)=O)C(=O)N[C@@H](Cc2ccc(O)cc2)C(=O)N[C@@H](CC(C)C)C(=O)N(CC(=O)N[C@@H](Cc2ccc(O)cc2)C(=O)O)CCCC1 [Bdev-27]
half-life at 0.2 mg/ml (carboxy peptidase): 15 min
half-life at 0.2 mg/ml (chymotrypsin): 4.37 min

CC(C)C[C@@H]1NC(=O)[C@H](Cc2ccc(O)cc2)NC(=O)[C@H](CCC(N)=O)NC(=O)[C@H](CO)NC(=O)[C@H](Cc2c[nH]c3ccccc23)NC(=O)[C@@H](NC(=O)[C@@H](N)Cc2ccc(O)cc2)CSSC[C@@H](C(=O)N[C@@H](Cc2ccc(O)cc2)C(=O)O)NC1=O [STD, reference compound]
half-life at 0.2 mg/ml (carboxy peptidase): 0.45 min
half-life at 0.2 mg/ml (chymotrypsin): 0.4 min

CC(C)C[C@@H]1NC(=O)[C@H](Cc2ccc(O)cc2)NC(=O)[C@H](CCC(N)=O)NC(=O)[C@H](CO)NC(=O)[C@H](Cc2c[nH]c3ccccc23)NC(=O)[C@@H](NC(=O)[C@@H](N)Cc2ccc(O)cc2)CCCCNCCCCN(CC(=O)N[C@@H](Cc2ccc(O)cc2)C(=O)O)C1=O [Bdev8]
half-life at 0.2 mg/ml (carboxy peptidase): 2.79 min
half-life at 0.2 mg/ml (chymotrypsin): 1.26 min
